Values after ≈ are worked out from the molar mass of the structure shown. Where a SMILES comes first, the peptide text is derived from it.
Key:
[1] = system: Spodoptera frugiperda (SF21) cells; assay: In vitro test against insect cells (MTT); type: cell-based; settings: 24 h
Method: To evaluate the ability of the peptides to cause lysis and morphological changes in insect cells ([Dutra, 2019]; Patent: BR 102022 006138 6) as a first screening of the insecticidal activity of the peptides, in this work, the Spodoptera IPLB-SF-21AE _LVI-Cenargen cell line ([Vaughn et al., 1977]) was used and different concentrations of the peptides were added to the culture medium.
Cells were maintained at 27°C in TNMFH medium (Grace’s insect medium supplemented with lactalbumin hydrolyzate and yeastolate), supplemented with 10% (v/v) fetal bovine serum (Sigma-Aldrich; [Castro et al., 2006]).
Cell cultivation was carried out in 10 ml culture bottles, model K11-1050 25cm^2, with 5 ml of culture medium per bottle. For the assays, the SF21 cells were grown in TNMFH medium, added 10% (v/v) of bovine fetal serum, and distributed in plates of 96 wells at the concentration of 2×10^4 cells per well, after counting was performed in the Neubauer chamber. Cell suspension was distributed in a volume of 100 μl per well. Peptides were diluted in TNMFH medium and 100 μl of medium with peptide was added, obtaining concentrations of 10, 5, and 1 μM, reaching the volume of 200 μl at the final concentrations of reaction per well. Cells were placed in incubation at 27°C, for 24 h.
After 24 h, the cells were analyzed for their modifications, morphological alterations, turbidity of the medium, formation of clumps, and/or lysis in the presence of peptides, by observation under optical microscopy (Nikon Eclipse TS100) with 20× and 40× magnification. Characteristics that could represent cell death or cell dysfunction caused by the peptides were observed compared to control cells. Cells were evaluated by cell viability using the MTT test 3-[4,5-dimethylthiazole-2-yl]-2,5-diphenyltetrazolium bromide 0.5 mg.ml^−1 (Sigma-Aldrich). To perform the test, the cell culture medium was discarded, and we added 100 μl of new medium. Ten μl of MTT was added to each well and incubated for 4 h, with the plates protected from light. After 4 h, we added 100 μl of DMSO to each well to dissolve the formazan crystals, and the reading in the microplate reader ([Riss et al., 2016]) was then performed. The results were analyzed using GraphPad Prism 8 software, where a One-Way ANOVA statistical test was followed by Bonferroni’s multiple comparisons test.

[2] = system: K. pneumoniae (ATCC 13883); type: cell-based, Klebsiella pneumoniae; settings: K. pneumoniae (ATCC13883); 5×10^5 CFU.ml^−1, Mueller-Hinton Broth, 37°C, 24 h, OD 595 nm, biological triplicates
Method: (§1) Susceptibility tests were performed using clinical isolates of Klebsiella pneumoniae carbapenemase (KPC 1410503) and methicillin-resistant S. aureus (MRSA 3730592). Tests were also performed with ATCC (American Type Culture Collection) isolates of K. pneumoniae (ATCC 13883) and S. aureus (ATCC 25923).
(§2) Two multidrug-resistant clinical isolates and two ATCC isolates were chosen to perform microbial susceptibility testing as models for studies with bacteria susceptible to antimicrobials found in the Gram-Positive and Gram-Negative groups of bacteria.
(§3) The broth microdilution method was performed according to the Clinical and Laboratory Standards Institute (CLSI) M07-A10 protocol to determine the Minimum Inhibitory Concentration (MIC; [Clinical Laboratory Standards Institute, 2015]). The assay was performed on 96-well microplates (TPP, United States), containing 5×10^5 CFU.ml^−1 of each tested bacterium per well and different peptide micromolar concentrations (Table 1) in a final volume of 100 μl of Mueller-Hinton Broth (MH). Negative control was represented by bacteria incubated in MH medium, while positive control was represented by culture incubated in MH medium with Amikacin. Plates were kept under agitation at 37°C in a BioTek spectrophotometer (PowerWaveTM HT Microplate Reader) with optical density (OD) readings at 595 nm every 30 min for 24 h. Inhibition results were analyzed using GraphPad Prism 8 software by comparing the OD from negative control wells (100%) to those containing peptides. All tests were performed in biological triplicates.

[3] = system: methicillin-resistant S. aureus (MRSA 3730592); type: cell-based, Staphylococcus aureus; settings: Methicillin-Resistant S. aureus—MRSA clinical isolate 3730592; 5×10^5 CFU.ml^−1, Mueller-Hinton Broth, 37°C, 24 h, OD 595 nm, biological triplicates
Method: as §1, §2, §3

S. aureus (ATCC 25923) = type: cell-based, Staphylococcus aureus; settings: S. aureus (ATCC25923); 5×10^5 CFU.ml^−1, Mueller-Hinton Broth, 37°C, 24 h, OD 595 nm, biological triplicates
Method: as §1, §2, §3

[4] = system: C. parapsilosis (ATCC22019); assay: Broth microdilution MIC (CLSI M27-A3 with modifications); type: cell-based, Candida parapsilosis; settings: 2.5 × 10^3 CFU.ml^−1, Sabouraud medium, 24 h at 30°C, absorbance 595 nm
Method: The broth microdilution method was performed according to the Clinical and Laboratory Standards Institute Guideline M27-A3 with modifications to determine the Minimum Inhibitory Concentration (MIC; [Clinical Laboratory Standards Institute, 2008]).
Initially, the fungus C. parapsilosis (ATCC22019) was grown in a Petri dish containing Sabouraud Dextrose Agar medium (Dextrose 40 g/L; Peptic digestion of animal tissue 5.0 g.L^−1; and Agar 15 g.L^−1) for 48 h. Subsequently, a pre-inoculum was performed from a yeast colony that was placed in 10 ml of liquid Sabouraud medium and incubated for 16 h at 28°C, with a constant rotation of 200 rpm. After the incubation period, 2.5 × 10^3 CFU.ml^−1 of fungus per well was incubated with different peptide micromolar concentrations (Table 1) to assess the MIC for each peptide.
Fungal cells incubated with Sabouraud medium were used as negative control, while positive control was represented by fungal cells incubated in Sabouraud medium and amphotericin B (10 μM). Subsequently, plates were incubated for 24 h at 30°C. After this period, the absorbance was read (595 nm) in a BioTek spectrophotometer (PowerWaveTM HT Microplate Reader), and data of antifungal activity with percentage of inhibition of peptides were plotted in GraphPad Prism 8 Software.

[5] = lowest concentration tested (1 μM)

Structure (SMILES) | viable cells (SF21) ([1]; 10 μM) | cell viability (SF21) ([1]; 5 and 1 μM) | Minimum inhibitory concentration (MIC) [2] | Minimum inhibitory concentration (MIC) [3] | Minimum inhibitory concentration (MIC) (S. aureus (ATCC 25923)) | Minimum inhibitory concentration (MIC) [4] | cell viability (SF21) [1, 5]
CC(C)C[C@H](NC(=O)[C@H](C)NC(=O)CNC(=O)[C@H](Cc1ccccc1)NC(=O)CN)C(=O)N[C@@H](Cc1ccccc1)C(=O)N[C@@H](CCCCN)C(=O)N[C@@H](CCCNC(=N)N)C(=O)N[C@@H](CC(C)C)C(=O)N[C@@H](C)C(=O)N[C@@H](CCCCN)C(=O)N[C@@H](CCCCN)C(=O)N[C@H](C(=O)N[C@@H](C)C(=O)N[C@@H](CCCCN)C(=O)N[C@H](C(=O)N[C@H](C(=O)N[C@@H](C)C(N)=O)C(C)C)[C@@H](C)O)C(C)C [Peptide R3b] (H-GFGALFKRLAKKVAKTVA-NH2) | 14% | greater than 50% | 67.21 µM (≈ 128 µg/mL) | 67.21 µM (≈ 128 µg/mL) | 67.21 µM (≈ 128 µg/mL) | 33.60 µM (≈ 64 µg/mL) | 
CC(C)C[C@H](NC(=O)[C@H](C)NC(=O)CNC(=O)[C@H](Cc1ccccc1)NC(=O)CN)C(=O)N[C@@H](Cc1ccccc1)C(=O)N[C@@H](CCCCN)C(=O)N[C@@H](Cc1ccccc1)C(=O)N[C@@H](CC(C)C)C(=O)N[C@@H](C)C(=O)N[C@@H](CCCCN)C(=O)N[C@@H](C)C(=O)N[C@H](C(=O)N[C@@H](C)C(=O)N[C@@H](CCCCN)C(=O)N[C@@H](C)C(=O)N[C@H](C(=O)N[C@@H](C)C(N)=O)C(C)C)C(C)C [Peptide R6b] (H-GFGALFKFLAKAVAKAVA-NH2) |  |  | 35.4 µM (≈ 64 µg/mL) | 17.7 µM (≈ 32 µg/mL) | 17.7 µM (≈ 32 µg/mL) | 70.8 µM (≈ 128 µg/mL) | below 50%
CC(C)C[C@H](NC(=O)[C@H](C)NC(=O)CNC(=O)[C@H](Cc1ccccc1)NC(=O)CN)C(=O)N[C@@H](Cc1ccccc1)C(=O)N[C@@H](CCCCN)C(=O)N[C@@H](CCCNC(=N)N)C(=O)N[C@@H](CC(C)C)C(=O)N[C@@H](C)C(=O)N[C@@H](CCCCN)C(=O)N[C@@H](C)C(=O)N[C@H](C(=O)N[C@@H](C)C(=O)N[C@@H](CCCCN)C(=O)N[C@@H](C)C(=O)N[C@H](C(=O)N[C@@H](C)C(N)=O)C(C)C)C(C)C [Peptide R8b] (H-GFGALFKRLAKAVAKAVA-NH2) |  |  | 17.60 µM (≈ 32 µg/mL) | 17.60 µM (≈ 32 µg/mL) | 17.60 µM (≈ 32 µg/mL) | 35.21 µM (≈ 64 µg/mL) | below 50%
CC(C)C[C@H](NC(=O)[C@H](CCCNC(=N)N)NC(=O)[C@H](CCCCN)NC(=O)[C@H](Cc1ccccc1)NC(=O)[C@H](CC(C)C)NC(=O)[C@H](CCCCN)NC(=O)CNC(=O)[C@H](Cc1ccccc1)NC(=O)CN)C(=O)N[C@@H](C)C(=O)N[C@@H](CCCCN)C(=O)N[C@@H](C)C(=O)N[C@H](C(=O)N[C@@H](C)C(=O)N[C@@H](CCCCN)C(=O)N[C@@H](C)C(=O)N[C@H](C(=O)N[C@@H](C)C(N)=O)C(C)C)C(C)C [Peptide R10b] (H-GFGKLFKRLAKAVAKAVA-NH2) |  |  | 17.07 µM (≈ 32 µg/mL) | 8.53 µM (≈ 16 µg/mL) | 8.53 µM (≈ 16 µg/mL) | 34.15 µM (≈ 64 µg/mL) | below 50%

From paper PMC9433906, “Evaluation of the biotechnological potential of peptide Cupiennin 1a and analogs” (Frontiers in Microbiology, 2022)
